# Source: ChEMBL document CHEMBL3301562, “MMV Box screening against Plasmodium falciparum protein kinases and aminoacyl tRNA synthetases”
# Columns and labels:
# Type in all cases: functional
# [1] = biological target: Calcium-dependent protein kinase 1 (Plasmodium falciparum, UniProt P62344); test: MMV: CDPK1 Protein kinase inhibition assay using recombinant PfCDPK1, syntide 2 peptide substrate, ATP and KinaseGlo to measure % inhibition at 1 uM MMV box compound.
# [2] = biological target: T1, Calcium-dependent protein kinase 4 (Plasmodium falciparum (isolate 3D7), UniProt Q8IBS5); test: MMV: CDPK4 Protein kinase inhibition assay using recombinant PfCDPK4, syntide2 peptide substrate, ATP and KinaseGlo to measure % inhibition at 1 uM MMV box compound.
# T1 sequence (Q8IBS5 whole entry): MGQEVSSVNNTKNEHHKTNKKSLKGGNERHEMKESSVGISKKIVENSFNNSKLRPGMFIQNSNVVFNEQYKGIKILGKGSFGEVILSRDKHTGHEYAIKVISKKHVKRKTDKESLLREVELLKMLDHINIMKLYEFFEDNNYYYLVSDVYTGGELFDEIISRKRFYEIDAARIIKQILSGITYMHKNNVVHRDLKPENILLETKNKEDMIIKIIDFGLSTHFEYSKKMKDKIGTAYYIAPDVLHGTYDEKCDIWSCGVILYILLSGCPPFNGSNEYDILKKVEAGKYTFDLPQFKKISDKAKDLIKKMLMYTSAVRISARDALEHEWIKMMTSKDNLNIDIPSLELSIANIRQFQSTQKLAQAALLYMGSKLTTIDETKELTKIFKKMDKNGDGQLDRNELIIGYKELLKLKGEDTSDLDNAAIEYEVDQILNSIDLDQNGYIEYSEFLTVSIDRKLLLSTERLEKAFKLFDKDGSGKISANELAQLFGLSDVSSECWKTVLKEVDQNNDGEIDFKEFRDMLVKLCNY
# [3] = biological target: T2, Putative uncharacterized protein pk7 (Plasmodium falciparum, UniProt O96214); test: Final concentrations were 1 uM ATP, 2 mM DTT, 20 mM MgCl2, 2 mM MnCl2, 0.01% BSA, and 6 ug/ml PK7, in a buffer of 20 mM Tris-HCl (pH 7.5). The enzyme itself was the only substrate present (since autophosphorylation occurs); 100 uM 1NA-PP1 was used as a control inhibitor. Incubation time was 3 hours.
# T2 sequence (O96214 whole entry): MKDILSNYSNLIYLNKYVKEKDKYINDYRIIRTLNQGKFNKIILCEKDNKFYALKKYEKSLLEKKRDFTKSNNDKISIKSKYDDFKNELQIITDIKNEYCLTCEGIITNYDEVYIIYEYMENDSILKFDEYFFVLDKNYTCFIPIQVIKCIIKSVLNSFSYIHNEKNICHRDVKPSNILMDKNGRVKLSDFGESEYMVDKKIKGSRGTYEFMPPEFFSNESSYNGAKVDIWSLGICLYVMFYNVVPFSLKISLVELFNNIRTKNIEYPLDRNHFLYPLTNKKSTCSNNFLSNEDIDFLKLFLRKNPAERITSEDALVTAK
# [4] = biological target: Lysine--tRNA ligase (Plasmodium falciparum (isolate 3D7), UniProt Q8IDJ8); test: MMV: KRS recombinant Plasmodium falciparum Lysyl-tRNA-synthetase, assay with yeast tRNA, ATP, and lysine and 3 uM MMV malaria box compound, assay read out with kinase glo as % inhibition.
# Chain of Lysine--tRNA ligase (Q8IDJ8 whole entry): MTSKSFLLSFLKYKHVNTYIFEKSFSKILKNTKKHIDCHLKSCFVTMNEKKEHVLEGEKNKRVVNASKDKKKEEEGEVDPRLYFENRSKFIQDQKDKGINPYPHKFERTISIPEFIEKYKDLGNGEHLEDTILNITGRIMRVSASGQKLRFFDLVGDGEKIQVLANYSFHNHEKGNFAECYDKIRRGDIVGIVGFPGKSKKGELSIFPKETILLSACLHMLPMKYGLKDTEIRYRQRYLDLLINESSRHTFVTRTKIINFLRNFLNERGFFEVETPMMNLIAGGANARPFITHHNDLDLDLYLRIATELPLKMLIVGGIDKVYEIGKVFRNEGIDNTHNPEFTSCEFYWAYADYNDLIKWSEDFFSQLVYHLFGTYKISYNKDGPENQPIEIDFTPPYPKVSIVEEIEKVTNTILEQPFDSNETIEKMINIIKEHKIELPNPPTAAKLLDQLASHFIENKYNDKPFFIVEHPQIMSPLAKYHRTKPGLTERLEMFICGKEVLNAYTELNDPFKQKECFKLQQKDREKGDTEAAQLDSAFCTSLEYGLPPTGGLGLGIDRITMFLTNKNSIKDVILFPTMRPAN
# [5] = biological target: T3, Mitogen-activated protein kinase (Plasmodium falciparum, UniProt Q25917); test: Final concentrations were 1 uM ATP, 0.5 mM DTT, 1 mM MgCl2, 0.5 mg/mL BSA, and 10 ug/ml MAP2 in a buffer of 50 mM HEPES (pH 7.0). 0.5 mg/mL histone III-S served as the substrate (13); 100 uM AMP-PNP, an ATP analog, was used as a control inhibitor. Incubation time was 4 hours.
# T3 sequence (Q25917 whole entry): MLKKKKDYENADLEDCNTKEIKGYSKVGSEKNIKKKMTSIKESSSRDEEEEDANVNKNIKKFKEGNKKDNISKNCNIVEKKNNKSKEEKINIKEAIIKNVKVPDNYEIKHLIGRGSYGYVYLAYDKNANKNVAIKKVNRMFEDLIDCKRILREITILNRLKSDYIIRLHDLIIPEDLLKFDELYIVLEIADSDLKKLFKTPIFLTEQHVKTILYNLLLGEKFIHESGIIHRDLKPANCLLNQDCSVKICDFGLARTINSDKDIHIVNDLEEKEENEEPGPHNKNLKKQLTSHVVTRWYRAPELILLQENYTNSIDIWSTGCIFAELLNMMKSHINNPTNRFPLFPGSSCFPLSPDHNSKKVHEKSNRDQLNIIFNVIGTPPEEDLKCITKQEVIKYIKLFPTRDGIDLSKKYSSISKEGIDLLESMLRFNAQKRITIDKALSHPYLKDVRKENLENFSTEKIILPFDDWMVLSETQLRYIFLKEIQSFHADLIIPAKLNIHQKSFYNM
# [6] = biological target: T4, Proline--tRNA ligase (Plasmodium falciparum (isolate 3D7), UniProt Q8I5R7); test: MMV: ProRS recombinant Plasmodium falciparum Prolyl-tRNA-synthetase, assay with yeast tRNA, ATP, and proline and 3 uM MMV malaria box compound, assay read out with kinase glo as % inhibition.
# T4 sequence (Q8I5R7 whole entry): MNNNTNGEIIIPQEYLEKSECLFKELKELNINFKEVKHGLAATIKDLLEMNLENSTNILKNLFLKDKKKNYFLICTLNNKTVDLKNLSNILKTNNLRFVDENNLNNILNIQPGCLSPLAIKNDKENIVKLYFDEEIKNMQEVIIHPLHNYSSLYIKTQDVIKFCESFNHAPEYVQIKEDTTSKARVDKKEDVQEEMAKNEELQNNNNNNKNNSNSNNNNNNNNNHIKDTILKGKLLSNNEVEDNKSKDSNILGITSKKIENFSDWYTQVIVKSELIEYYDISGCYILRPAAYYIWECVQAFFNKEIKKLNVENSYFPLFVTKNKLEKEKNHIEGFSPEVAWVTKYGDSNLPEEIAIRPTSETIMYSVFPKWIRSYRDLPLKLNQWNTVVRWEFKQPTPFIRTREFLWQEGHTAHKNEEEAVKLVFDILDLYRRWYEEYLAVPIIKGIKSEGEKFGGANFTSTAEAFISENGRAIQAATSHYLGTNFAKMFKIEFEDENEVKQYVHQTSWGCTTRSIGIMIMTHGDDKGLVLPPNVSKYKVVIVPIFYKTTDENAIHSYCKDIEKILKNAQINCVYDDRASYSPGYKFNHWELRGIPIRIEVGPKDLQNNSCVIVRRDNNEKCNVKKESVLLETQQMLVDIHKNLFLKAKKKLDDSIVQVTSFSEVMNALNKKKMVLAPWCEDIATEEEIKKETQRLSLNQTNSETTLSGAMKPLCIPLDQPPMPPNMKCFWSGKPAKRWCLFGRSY
# [7] = biological target: T5, Cdk-related protein kinase 6 (Plasmodium falciparum, UniProt O77239); test: Final concentrations were 1.5 uM ATP, 5 mM MnCl2, and 15 ug/ml PK6 in a buffer of 100 mM Tris-HCl (pH 7.5). 50 ug/mL MBP was provided as the substrate; 10 uM staurosporine was used as a control inhibitor. Incubation time was 3 hours and 40 minutes.The catalytic activity of each kinase was considered proportional to ATP consumed, as determined from measurements of residual [ATP] with the luciferase-based reagent Kinase-Glo (Promega) following incubation. Luminescence (proportional to residual [ATP]) was measured on the plate readers FLx800 (BioTek Instruments, Winooski, VT, USA) and MicroBeta2.
# T5 sequence (O77239 whole entry): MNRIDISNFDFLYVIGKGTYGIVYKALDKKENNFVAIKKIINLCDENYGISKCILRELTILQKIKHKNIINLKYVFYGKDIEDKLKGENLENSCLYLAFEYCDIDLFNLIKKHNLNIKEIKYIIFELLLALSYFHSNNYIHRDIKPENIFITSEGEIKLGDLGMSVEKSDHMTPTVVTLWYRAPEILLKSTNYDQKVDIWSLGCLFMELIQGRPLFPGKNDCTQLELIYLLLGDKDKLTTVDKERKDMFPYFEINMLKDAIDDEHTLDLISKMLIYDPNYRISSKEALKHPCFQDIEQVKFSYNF
# Chain of Calcium-dependent protein kinase 1 (P62344 whole entry): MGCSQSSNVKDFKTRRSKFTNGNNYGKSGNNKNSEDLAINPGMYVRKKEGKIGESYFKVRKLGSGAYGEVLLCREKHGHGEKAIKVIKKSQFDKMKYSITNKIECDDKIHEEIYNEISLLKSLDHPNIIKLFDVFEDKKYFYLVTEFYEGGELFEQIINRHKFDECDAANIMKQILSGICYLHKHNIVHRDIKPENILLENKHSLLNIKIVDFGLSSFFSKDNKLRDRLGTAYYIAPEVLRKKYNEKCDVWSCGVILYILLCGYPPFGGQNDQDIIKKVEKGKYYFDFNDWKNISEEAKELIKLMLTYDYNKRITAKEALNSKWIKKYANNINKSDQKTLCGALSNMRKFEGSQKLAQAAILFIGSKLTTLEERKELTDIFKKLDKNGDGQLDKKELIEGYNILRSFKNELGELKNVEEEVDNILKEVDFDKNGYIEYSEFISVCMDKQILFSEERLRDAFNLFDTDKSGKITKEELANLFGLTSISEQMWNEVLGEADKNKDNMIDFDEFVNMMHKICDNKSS
SMILES,IC50 [1] [nM],IC50 [2] [nM],IC50 [3] [nM],IC50 [4] [nM],IC50 [5] [nM],IC50 [6] [nM],IC50 [7] [nM]
CCOC(=O)C1=C(C)N=c2sc(=Cc3ccccc3O)c(=O)n2C1c1ccc(OC)c2ccccc12 (configuration not stated),> 1000,> 1000,> 1000,> 2500,> 1000,> 2500,> 1000
FC(F)(F)c1cccc(Nc2nc3ccccc3nc2Nc2cccc(C(F)(F)F)c2)c1,> 1000,> 1000,> 1000,> 2500,> 1000,> 2500,> 1000
Cc1ccnc(NC(c2cccc(OCc3ccccc3)c2)c2ccc3cccnc3c2O)c1 (configuration not stated),> 1000,> 1000,> 1000,> 2500,> 1000,> 2500,> 1000
O=c1cc(NC2CCN(CCCc3ccccc3)CC2)c2cc(Cl)ccc2o1,> 1000,> 1000,> 1000,> 2500,> 1000,> 2500,> 1000
CC1CCN(Cc2c(O)ccc3cc(-c4nc5ccccc5s4)c(=O)oc23)CC1,> 1000,> 1000,> 1000,> 2500,> 1000,> 2500,> 1000
Cc1ccc2cc3c(N)c4c(C)ccc(C)c4nc3nc2c1,> 1000,> 1000,> 1000,> 2500,> 1000,> 2500,> 1000
CC(C)CCNCC(O)Cn1c2ccccc2c2ccccc21 (configuration not stated),> 1000,> 1000,> 1000,> 2500,> 1000,> 2500,> 1000
O=C(Nc1ccc(C23CC4CC(CC(c5ccccc5)(C4)C2)C3)cc1)c1cccs1,> 1000,> 1000,> 1000,> 2500,> 1000,> 2500,> 1000
CCOC(=O)c1cnc2c(C)cccc2c1Nc1ccc(C(C)=O)cc1,> 1000,> 1000,> 1000,> 2500,> 1000,> 2500,> 1000
Cc1ccc(C2CC(C(F)(F)F)n3nc(C(=O)N4CCN(C(c5ccccc5)c5ccccc5)CC4)cc3N2)cc1 (configuration not stated),> 1000,> 1000,> 1000,> 2500,> 1000,> 2500,> 1000
Cc1ccc2nc(C)cc(Nc3cccc(C(F)(F)F)c3)c2c1,> 1000,> 1000,> 1000,> 2500,> 1000,> 2500,> 1000
COc1cccc(C(=O)NC(c2ccc(C)cc2)c2cc(Cl)c3cccnc3c2O)c1 (configuration not stated),> 1000,> 1000,> 1000,> 2500,> 1000,> 2500,> 1000
COc1ccc(-c2cc(=O)oc3c4c(ccc23)OCN(Cc2ccc(F)cc2)C4)cc1,> 1000,> 1000,> 1000,> 2500,> 1000,> 2500,> 1000
CCOc1ccc2c(c1)CN(Cc1ccc(Cl)cc1)CO2,> 1000,> 1000,> 1000,> 2500,> 1000,> 2500,> 1000
CCCCC(O)(c1ccc(Cl)cc1)C(CN1CCOCC1)c1ccc(Cl)cc1 (configuration not stated),> 1000,> 1000,> 1000,> 2500,> 1000,> 2500,> 1000
Cc1cc(=O)oc2c1ccc1oc(C(=O)c3ccccc3)c(C)c12,> 1000,> 1000,> 1000,> 2500,> 1000,> 2500,> 1000
COc1ccc2c(c1OC)C(=O)N1c3ccccc3N=C(c3ccc(C)cc3)CC21 (configuration not stated),> 1000,> 1000,> 1000,> 2500,> 1000,> 2500,> 1000
CCCCCCc1cc(O)c2c3c(c(=O)oc2c1)CCC(C)C3 (configuration not stated),> 1000,> 1000,> 1000,> 2500,> 1000,> 2500,> 1000
COc1ccc(CCNC(=O)c2cc(S(=O)(=O)N3CC(C)CC(C)C3)ccc2Sc2ccc(F)cc2)cc1OC (configuration not stated),> 1000,> 1000,> 1000,> 2500,> 1000,> 2500,> 1000
CCOc1ccc(Nc2c3ccccc3nc3ccccc23)cc1,> 1000,> 1000,> 1000,> 2500,> 1000,> 2500,> 1000
CC1=C(CC(=O)c2cccc([N+](=O)[O-])c2)C(=O)c2ccccc2C1=O,> 1000,> 1000,> 1000,> 2500,> 1000,> 2500,> 1000
